Key:
Assay type in all cases: cell-based
[1] = tested on: human immortalized epidermal cells; experiment: Cytotoxicity test (MTT) of human immortalized epidermal cells; settings: samples containing cannabis seed oil
Method: Human immortalized epidermal cells at a logarithmic phase were collected, the concentration of the cell suspension was adjusted, the cell suspension was added to a 96-well plate at 100 μl per well, incubation was performed at 37° C. and with 5% CO2 to reach a cell density of 5000 cells/well. The solution was changed and the experimental samples at different concentration gradients were added (as the following Table 4), a culture solution containing no experiment sample was used as the control. Incubation was performed with 5% CO2 and at 37° C. for 24 hours, 20 μl of MTT solution (5 mg/ml, i.e. 0.5% MTT) was added into each well, the cultivation was continued for four hours. The drug reacted with MTT sufficiently, firstly centrifugation was performed, then the culture solution was abandoned, and rinsing was performed with PBS carefully for 2-3 times, then a culture solution containing MTT was added. The cultivation was terminated, the culture solution in the well were drawn off carefully. […] The absorbance values of each well were measured in an enzyme linked immunosorbent detector at OD value of 490 nm.
Cell survival rate=(determined well OD value−blank control OD value)/(OD value in the cell comparative group−OD value in the blank control)×100%.

[2] = target: T1, tyrosinase (Mus musculus, UniProt P11344); experiment: Determination of tyrosinase inhibition rate in B16 cells; settings: action of 72 hours, inhibition rate increased with amount
T1 construct: endogenous in cells; host or cells: B16 cells
T1 sequence (P11344 19-533): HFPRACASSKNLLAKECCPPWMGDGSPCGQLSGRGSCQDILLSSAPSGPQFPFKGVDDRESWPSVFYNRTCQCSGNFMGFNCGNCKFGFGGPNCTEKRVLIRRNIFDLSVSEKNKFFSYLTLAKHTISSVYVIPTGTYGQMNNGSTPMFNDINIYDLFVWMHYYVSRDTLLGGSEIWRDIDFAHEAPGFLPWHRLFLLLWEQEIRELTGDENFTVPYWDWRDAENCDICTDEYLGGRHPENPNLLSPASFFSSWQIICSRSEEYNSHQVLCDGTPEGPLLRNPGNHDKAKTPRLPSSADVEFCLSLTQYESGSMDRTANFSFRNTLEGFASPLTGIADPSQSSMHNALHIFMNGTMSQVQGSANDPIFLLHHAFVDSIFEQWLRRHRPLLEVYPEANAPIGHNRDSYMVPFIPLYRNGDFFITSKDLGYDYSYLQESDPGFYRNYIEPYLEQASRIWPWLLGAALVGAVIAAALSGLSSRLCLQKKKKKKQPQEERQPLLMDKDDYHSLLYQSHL
Method: B16 cells at a logarithmic phase were collected, trypsin was adopted for digestion, the digestion was terminated with a complete medium (DMEM high sugar medium+10% fetal calf serum), counting was performed; the cell suspension was adjusted to 10×10^4 cells/mL, and inoculated into a 96-well culture plate, each well was added with 100 μl of cell suspension, the marginal wells were filled with sterile PBS, and cultivated in an incubator at 37° C. and with 5% CO2 overnight, the medium (DMEM high sugar medium+10% fetal calf serum) was drawn out, 100 μl of the experiment sample was added into each well, and a control group (namely, the well without the sample but with only medium) was set. After action of 72 hours, 50 μl of 1% TritionX-100 solution was added for cell lysis, quickly put into an ultra-low temperature freezer at −80° C. and cryopreserved for one hour, subsequently the cryopreserved solution was thawed at room temperature, such that tyrosinase within the cells were released outside the cells, pre-warming was performed to 37° C., then 50 μl of 1% levodopa solution was added to produce a mixture, the mixture was reacted at 37° C. for 2 hours, the absorbance value in each well was determined at the wavelength of 490 nm, for every sample concentration, more than 3 subwells were set, and averaged. […]

[3] = tested on: B16 cells; experiment: Determination of melanin content in B16 cells; settings: positive control 33 mM
Method: B16 cells in good state at a logarithmic phase were collected, trypsin was adopted for digestion, the digestion was terminated with a complete medium, and counting was performed; the prepared cell suspension was adjusted to 5×10^4 cells/ml and added into a 6-well culture plate, 2 ml of cell suspension was added into each well, cultivation was performed in an incubator at 37° C. and with 5% CO2 overnight; the medium was drawn out, 2 ml of cannabis extracts with different concentrations were added into each well, after action of 48 hours, the medium was drawn out and abandoned, trypsin was adopted for digestion, and the product was collected into a centrifugal tube, centrifugation was performed to obtain a cell precipitate, the cell precipitate was washed with PBS for one time, a 1M NaOH (containing 10% DMSO) solution was added for cell lysis, and the lysed cells were put in a 80° C. water bath kettle for water bath for 30 minutes; uniform shaking and mixing were performed, and the processed cells were drawn into to a 96-well plate; and the absorbance value was determined at the wavelength of 245 nm.
Relative melanin content=(mean absorbance value in each well under every concentration−mean absorbance value in the control group)[…].

C=C(C)[C@@H]1CCC(C)=C[C@H]1c1c(O)cc(CCCCC)cc1O [CBD, Cannabidiol]
cell proliferation (eliminating the influence of the cannabis seed oil) [1]: promote cell proliferation to a certain extent
inhibitory effect against tyrosinase (inhibition rate) [2]: effective inhibitory effect against tyrosinase

OC[C@H]1O[C@@H](Oc2ccc(O)cc2)[C@H](O)[C@@H](O)[C@@H]1O [arbutin, Arbutin]
melanin content within the B16 cells [3]: 79.24%
